# Target: Human immunodeficiency virus type 1 protease (Human immunodeficiency virus 1, UniProt Q72874)
# Test: Inhibition of HIV-1 protease was determined in vitro
compound,measurement,value
"CC(C)(C)NC(=O)[C@@H]1C[C@@H]2CCCC[C@@H]2CN1C[C@@H](O)[C@H](Cc1ccccc1)NC(=O)[C@@H](NC(=O)c1ccc2ccccc2n1)[C@H]1CCOC1 [(3S,4aS,8aS)-N-tert-butyl-2-[(2R,3S)-2-hydroxy-3-[(2S)-2-[(3R)-oxolan-3-yl]-2-(quinolin-2-ylformamido)acetamido]-4-phenylbutyl]-decahydroisoquinoline-3-carboxamide]",IC50,0.05 nM
